Test results as given in patent publication US12590332B2, “Composition for diagnosing or treating kidney disease” (INJE UNIVERSITY INDUSTRY-ACADEMIC COOPERATION FOUNDATION, priority 2020, dated 2026).

Tests used:
HK2 cells = experiment: VSIG4 expression in HK2 renal tubular cells (mRNA by PCR, protein by Western blot); type: cell-based, human; details: renal tubular cells treated with TGF-β (10 ng/mL recombinant); FIG. 3
Method: HK2 cells (A TCC, Manassan, VA), immortalized human renal proximal tubule cells, were cultured by adding, in a DMEM medium (Mediatech Inc., Corning Subsidiary, Manassas, VA), 10% heat inactivated fetal bovine serum (Tissue Culture Biologicals, Tulare, CA, USA), 100 IU/mL of penicillin, and […] of streptomycin in a humid atmosphere in the presence of 5% CO2 at 37° C.
[…] The purchased scrambled siRNA (control siRNA) and VSIG4 siRNA (z391g, Santa Cruz Biotechnology, Santa Cruz, CA) were each transfected by 200 MOI to suppress VSIG4 expression in HK2 cells.
To inhibit TGF-β expression, TGF-β-siRNA (Santa Cruz Biotechnology, Santa Cruz, CA, USA) was used, and 10 ng/mL of recombinant TGF-β (R&D systems, Minneapolis, MN, USA) was used for TGF-β stimulation experiment.
The medium in a plate in which cells are being cultured was removed and RNA was extracted using Trizol (Life Technologies, Gaithersburg, MD, USA). Reverse transcription (RT) was performed using a cDNA synthesis kit (Applied biosystems, Roche Inc., Foster City, CA, USA), mRNA expression was evaluated using polymerase chain reaction (PCR), and the expression level was corrected with β-actin or GAPDH.
Proteins obtained by treating cell lysates with RIPA buffer were quantified, and 20 μg of protein was separated using 8-15% SDS-PAGE. […]

mouse podocyte cell line = experiment: VSIG4 expression in podocytes (mRNA by PCR, protein by Western blot); type: cell-based
Method: The mouse podocyte cell line was mixed with 10% heat inactivated fetal bovine serum, 100 IU/mL of penicillin, and […] of streptomycin in RPMI culture medium and cultured in a humid atmosphere in the presence of 5% CO2 at 37° C. To evaluate VSIG4 expression, low glucose (LG, 5.5 mM) and high glucose (HG, 55 mM), 100 nM angiotensin II, 1.0 μg/mL and 3.0 μg/mL of Adriamycin were treated. The medium in a plate in which cells are being cultured was removed and RNA was extracted using Trizol (Life Technologies, Gaithersburg, MD, USA). Reverse transcription (RT) was performed using a cDNA synthesis kit (Applied biosystems, Roche Inc., Foster City, CA, USA), mRNA expression was evaluated using polymerase chain reaction (PCR), and the expression level was corrected with β-actin or GAPDH. Proteins obtained by treating cell lysates with RIPA buffer were quantified, and 20 μg of protein was separated using 8-15% SDS-PAGE. After separation of the protein by electrophoresis using 10% SDS-PAGE, the protein was transferred to a PVDF membrane (Millipore corporation bedford, USA) using a PAGE transfer buffer (Amersham Life Science, Arlington Heights, IL) at 270 mA for 4 hours, reacted overnight at 4° C. using a blocking solution (5% skim milk), and washed with Tris buffered saline with Tween-20 (TBS-T buffer; 10 mM Tris-Cl, pH 7.8, […] Nacl, 0.05% Tween-20). […]

Balb/c male mice = experiment: Adriamycin-induced renal injury model; details: 11 mg/kg once into tail vein, 4 weeks, FIG. 8

TGF-β
VSIG4 expression (HK2 cells): increased

COc1cccc2c1C(=O)c1c(O)c3c(c(O)c1C2=O)C[C@@](O)(C(=O)CO)C[C@@H]3O[C@H]1C[C@H](N)[C@H](O)[C@H](C)O1 [Adriamycin]
expression of VSIG4 mRNA and protein (mouse podocyte cell line; podocytes, 1.0 μg/mL and 3.0 μg/mL, 12 hours and 24 hours, FIG. 9): increased over time | VSIG4 protein expression (urine) (Balb/c male mice; 24-hour urine, ELISA): significantly increased | albuminuria (Balb/c male mice; 24-hour urine): significantly increased | VSIG4 mRNA expression in kidney tissues (Balb/c male mice): significantly increased

angiotensin II (DRVYIHPF; Angiotensin-2; UniProt P01019 25-32, looked up) [main substance of kidney damage used to stimulate podocytes]
expression of VSIG4 mRNA and protein (mouse podocyte cell line; podocytes stimulated with high glucose (55 mM) and angiotensin II (100 nM), compared to low glucose, FIG. 4): increased
